In paper PMC9000415, “Discovery of Novel Epoxyketone Peptides as Lipase Inhibitors” (Molecules, 2022):

Assays:
[1] = target: T1, porcine PL (pancreatic lipase) (Sus scrofa, UniProt P00591); assay: GC-FID based anti-lipase assay (phenyl acetate hydrolysis); type: biochemical; conditions: for IC50: porcine pancreatic lipase, phenyl acetate substrate, GC-FID, read-out: IC50 (nM) against PL
T1 construct: Lipase from porcine pancreas, Type II; purchased Sigma Aldrich L3126; host or cells: porcine pancreas (tissue-derived)
T1 sequence (P00591 1-450): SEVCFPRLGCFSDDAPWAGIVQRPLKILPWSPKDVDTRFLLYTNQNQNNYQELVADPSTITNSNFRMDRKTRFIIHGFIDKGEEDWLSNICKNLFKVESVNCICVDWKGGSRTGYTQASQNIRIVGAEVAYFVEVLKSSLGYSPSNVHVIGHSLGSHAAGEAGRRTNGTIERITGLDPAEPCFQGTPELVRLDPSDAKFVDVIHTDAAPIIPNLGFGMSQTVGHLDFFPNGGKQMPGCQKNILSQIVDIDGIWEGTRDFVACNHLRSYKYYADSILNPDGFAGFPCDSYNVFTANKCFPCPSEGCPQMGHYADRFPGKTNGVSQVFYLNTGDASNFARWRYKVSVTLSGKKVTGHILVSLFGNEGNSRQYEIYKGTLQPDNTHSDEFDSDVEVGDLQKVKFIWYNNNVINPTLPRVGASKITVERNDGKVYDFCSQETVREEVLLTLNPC
Protocol: All chemicals and solvents were purchased from commercial suppliers (Amman, Jordan) and used without further purification. Anhydrous solvents were distilled from sodium and benzophenone before use. NMR (The University of Jordan, Amman, Jordan) spectra were recorded on a Varian 500 MHz spectrometer (500 and 125 MHz for the ^1H and ^13C nuclei, respectively) using CDCl3 as solvents and spectra were referenced to residual solvent as internal standard (for CDCl3 δH 7.26 and δC 77.1). LC-HRMS data for analysis of compounds 3−13 were obtained on an Agilent 6239 HR-ESI-TOFMS (UCSD, San Diego, CA, USA) equipped with a Phenomenex Luna 5 µm C18 100 Å column (4.6 × 250 mm). LCMS data for purity analysis of the synthesized compounds 3−13 were obtained with a Thermo Finnigan Surveyor Autosampler-Plus/LC-PumpPlus/PDA-Plus system and a Thermo Finnigan LCQ Advantage Max mass spectrometer (monitoring m/z 150−2000 in positive ion mode) using a linear gradient of 30–100% H2O/acetonitrile over 30 min; flow rate of 0.9 mL/min (UCSD, San Diego, CA, USA). Semipreparative HPLC (UCSD, San Diego, CA, USA) purification was carried out using a Waters 515 with a Waters 996 photodiode array detector using Empower Pro software. […] Chemical shifts (δ) are given in parts per million (ppm) and coupling constants (J) are reported in Hertz (Hz). The compounds are named in accordance with IUPAC rules as applied by ChemBioDraw Ultra (version 20.1.1) (software provided by the University of Jordan, Amman, Jordan). GCMS analysis: Thermo Scientific Focus gas chromatography coupled to a flame ionization […] was used to analyze the samples. A total of 1.0 µL sample was injected into the Thermo Scientific Focus GC-FID equipped with a split/spitless injector (split ratio, 2.5). The column was HP-5 (DP-5) capillary column stationary phase. Helium was the carrier gas at a flow rate of 1.0 mL/min. Linear temperature program was applied from 100 to 250 °C at 5 °C/min. The specific run time of analysis for each sample was […]. The temperatures of the injector base and the detector were maintained at 250 °C, 250 °C respectively. Lipase from porcine pancreas, Type II, 100–650 units/mg protein (product# L3126) was purchased from Sigma Aldrich (Amman, Jordan).
All tested compounds were dissolved in DMSO to prepare a stock solution (of each compound) having a known concentration. A proper aliquot of each tasted compound was obtained by further dilution of the stock. Samples were prepared and analyzed for their phenyl acetate content by adopting an internal standard procedure. the sample analysis performed using GC-FID. For each sample, 50 µL of 2 mg/mL pancreatic lipase, phenyl acetate (1 mM), and 50 µL of each candidate inhibitor. […] Subsequently, the samples were left for overall time of 20 min vortex and centrifuged for approximately 3 min. For extraction of the phenyl acetate remain in the aqueous layer the nonpolar solvent chloroform containing the internal standard added, then vortex and centrifuged and the chloroform removed to another tube for the GC-FID analysis.
The linearity, RSD, LOD, and LOQ were evaluated for the method of analysis. […] The LOD and LOQ both was measured using the signal-to-noise method. The ratio of the analyte signal to the peak-to-peak noise signal around it was measured of (3:1) which is generally accepted signal-to-noise ratio (S/N) for the LOD estimation.

[2] = tested on: CCD-1064Sk fibroblast cell line; assay: Cytotoxicity, MTT assay, fibroblasts; type: cell-based; conditions: Homo sapiens, 72 h exposure
Protocol: (§1) All the cell line that were used in this study are (CCD-1064SK) the human normal skin fibroblast and HepG2 hepatoma cell line. The CCD-1064SK and HepG2 cell line was purchased from American Type Culture Collection (ATCC, Manassas, VA, USA). Cells were cultured in Iscove’s medium as recommended from ATCC. Media was supplement with 10% heated fetal bovine serum, 1% of 2 Mm L-glutamine, and (100 IU/mL) penicillin/(100 ug/mL) streptomycin. According to the cells growth profile, cells were seeded with a density of 10 × 10^4 cell/well. Cell viability was determined by trypan blue exclusion using a hemocytometer. For the cytotoxicity assay, cells were washed with phosphate buffer saline (PBS). PBS was decanted and cells detached with 0.025% trypsin-EDTA (EuroClone). Media was added to a volume of 10 mL. The cell suspension was centrifuged at 1000 rpm for 10 min and the pellet was resuspended in 10 mL medium to make a single cell suspension. Viability of the cells was determined by trypan blue exclusion, and it exceeded 90% as counted in a hemocytometer. The cell suspension was diluted afterwards to give the optimal seeding density and 100 uL of the cell suspension was plated in a 96 well plate. Cells were cultured at 37 °C in a humidified atmosphere of 5% CO2. After 24 h the cells were treated with different concentrations of tested compounds, (each compound was initially dissolved in DMSO). Initially, 100 and 50 ug/mL of each extract were tested. The active compounds were those which gave less than 50% survival at exposure time 72 h. The final dilution for all prepared concentrations used for treating the cells contained not more than 0.01% of the initial solvent (DMSO), this concentration being used in the solvent control wells. At the end of the exposure time, cell growth was analyzed using the MTT assay. MTT assay: After 72 h of incubation, 15 µL of MTT stock solution (Promega) (5 mg/mL in sterile phosphate-buffered saline, pH 7.4) was added to each well. After the cells were incubated for 3 h in the presence of MTT, 100 µL of solubilizing stop solution was added to each well to solubilize the dark violet formazan crystals. The optical densities at 570 nm were then measured using a microplate reader. The results were expressed as a percentage of cell viability with respect to a control corresponding to untreated cells.

[3] = tested on: HepG2 hepatoma cell line; assay: Cytotoxicity, MTT assay, HepG2; type: cell-based; conditions: Homo sapiens, 72 h exposure, read-out: HepG2 Cells IC50
Protocol: as §1

[4] = tested on: dietary fat absorption; conditions: therapeutic dose; cited from earlier work

CCCCCCCCCCCC(=O)N[C@@H](Cc1ccc(F)cc1F)C(=O)[C@@]1(C)CO1 [Analogue 3, N-((S)-3-(2,4-difluorophenyl)-1-((R)-2-methyloxiran-2-yl)-1-oxopropan-2-yl)dodecanamide]
IC50 [1]: 29.3 ± 2.4 nM | IC50 [2]: > 15 µM | IC50 [3]: 2.6 µM

CCCCCCCCCCCC(=O)N[C@@H](CCCC)C(=O)N[C@@H](Cc1ccc(F)cc1F)C(=O)[C@@]1(C)CO1 [Analogue 4, N-((S)-1-(((S)-3-(2,4-difluorophenyl)-1-((R)-2-methyloxiran-2-yl)-1-oxopropan-2-yl)amino)-1-oxohexan-2-yl)dodecanamide]
IC50 [1]: 9.3 ± 2.5 nM | IC50 [2]: > 15 µM | IC50 [3]: 2.33 µM

CC(C)(C)OC(=O)N[C@@H](Cc1ccc(F)cc1F)C(=O)[C@@]1(C)CO1 [Analogue 5, tert-butyl ((S)-3-(2,4-difluorophenyl)-1-((R)-2-methyloxiran-2-yl)-1-oxopropan-2-yl)carbamate]
IC50 [1]: 29.4 ± 4.8 nM | IC50 [2]: > 15 µM | IC50 [3]: > 15 µM

CC(C)(C)OC(=O)N[C@@H](Cc1ccc(F)cc1)C(=O)[C@@]1(C)CO1 [Analogue 6, tert-butyl ((S)-3-(4-fluorophenyl)-1-((R)-2-methyloxiran-2-yl)-1-oxopropan-2-yl)carbamate]
IC50 [1]: 46.4 ± 3.7 nM | IC50 [2]: > 15 µM | IC50 [3]: > 15 µM

CC(C)(C)OC(=O)N[C@@H](Cc1ccccc1)C(=O)[C@@]1(C)CO1 [Analogue 7, tert-butyl ((S)-1-((R)-2-methyloxiran-2-yl)-1-oxo-3-phenylpropan-2-yl)carbamate]
IC50 [1]: 49.1 ± 11.4 nM | IC50 [2]: > 15 µM | IC50 [3]: > 15 µM

CC(C)C[C@H](NC(=O)OC(C)(C)C)C(=O)[C@@]1(C)CO1 [Analogue 8, tert-butyl ((S)-4-methyl-1-((R)-2-methyloxiran-2-yl)-1-oxopentan-2-yl)carbamate]
IC50 [1]: 120 ± 15.2 nM | IC50 [2]: > 15 µM | IC50 [3]: > 15 µM

C[C@]1(C(=O)[C@@H](N)Cc2ccc(F)cc2F)CO1 [Analogue 9, (S)-2-amino-3-(2,4-difluorophenyl)-1-((R)-2-methyloxiran-2-yl)propan-1-one]
IC50 [1]: 41.5 ± 7.1 nM | IC50 [2]: > 15 µM | IC50 [3]: > 15 µM

C[C@]1(C(=O)[C@@H](N)Cc2ccccc2)CO1 [Analogue 10]
IC50 [1]: 73.1 ± 9.8 nM | IC50 [2]: > 15 µM | IC50 [3]: > 15 µM

CC(C)(C)OC(=O)N[C@@H](Cc1ccc(F)cc1F)C(=O)[C@]1(C)CO1 [Analogue 11, tert-butyl ((S)-3-(2,4-difluorophenyl)-1-((S)-2-methyloxiran-2-yl)-1-oxopropan-2-yl)carbamate]
IC50 [1]: 29 ± 4.2 nM | IC50 [2]: > 15 µM | IC50 [3]: > 15 µM

C=C(C)C(=O)[C@H](Cc1ccc(F)cc1F)NC(=O)OC(C)(C)C [Analogue 13, tert-butyl (S)-(1-(2,4-difluorophenyl)-4-methyl-3-oxopent-4-en-2-yl)carbamate]
inhibition of PL at the highest concentration tested ([1]; 10 µM): did not inhibit | IC50 [1]: > 10000 nM | IC50 [2]: > 15 µM | IC50 [3]: > 15 µM

CCCCCC(=O)N[C@H](C(=O)N[C@@H](CCS(C)(=O)=O)C(=O)N[C@@H](CC(C)C)C(=O)[C@@]1(C)CO1)C(C)C [carmaphycin B (2), carmaphycin B, reference compound]
IC50 [1]: 25 ± 1.1 nM

CCCCCCCCCCC[C@@H](C[C@@H]1OC(=O)[C@H]1CCCCCC)OC(=O)[C@H](CC(C)C)NC=O [orlistat (1), orlistat]
inhibition of dietary fat absorption [4]: approximately 30%
